Test system: not listed separately
Experiment: logP by HPLC on reversed-phase columns (C 18), EEC Directive 79/831 Annex V.A8
Format: physicochemical
Settings: * LC-MS, acidic range pH 2.7, 0.1% aqueous formic acid and acetonitrile
From the text: [table] The calibration is effected with unbranched alkan-2-ones (having 3 to 16 carbon atoms) with known logP values (logP values determined on the basis of the retention times by linear interpolation between two successive alkanones).
With `CSc1nccnc1-n1nc(C(F)(F)F)c(-c2cc(Cl)cc(C(F)(F)F)c2)c1N` [Ex. 28] the “log P” value was 4.9*.

Same assay, conditions: reversed-phase C18 HPLC column, pH 2.7, * LC-MS, acidic range pH 2.7, 0.1% aqueous formic acid and acetonitrile; read-out: log P
In the case of `COc1nccnc1-n1nc(C(F)(F)F)c(-c2cc(Br)c3c(c2)OCO3)c1N` [Ex. 74], the chromatographic logP is reported as 3.18. Work on `COc1nccnc1-n1nc(C(C)C)c(-c2cc(Cl)c3c(c2)OCO3)c1N` [Ex. 77] yielded a chromatographic logP of 2.96. In the case of `COc1nccnc1-n1nc(C(F)(F)F)c(-c2cc(C#N)c3c(c2)OCO3)c1N` [Ex. 150], the chromatographic logP is reported as 2.66. For `COc1nccnc1-n1nc(C(F)(F)Cl)c(-c2cc(Cl)c3c(c2)OCO3)c1N` [Ex. 169], the chromatographic logP was 3.26. In the case of `CCOc1nccnc1-n1nc(CC)c(-c2cc(Cl)c3c(c2)OCO3)c1N` [Ex. 170], the chromatographic logP is reported as 2.96.

Test system: Boophilus microplus
Experiment: Boophilus microplus test (BOOPMI injection)
Format: in vivo
Settings: 20 μg animal; injection into the abdomen; after 7 days, laying of fertile eggs
Experimental: Boophilus microplus Test (BOOPMI Injection) Solvent: dimethyl sulphoxide To prepare an appropriate active ingredient formulation, 10 mg of active ingredient are mixed with 0.5 ml of solvent and the concentrate is diluted with solvent to the desired concentration. The active ingredient solution is injected into the abdomen (Boophilus microplus), and the animals are transferred into dishes and stored in a climate-controlled room. The efficacy is assessed by laying of fertile eggs. After 7 days, the efficacy in % is determined. 100% means that none of the ticks has laid any fertile eggs.
Work on `CSc1nccnc1-n1nc(C(F)(F)F)c(-c2cc(Cl)cc(C(F)(F)F)c2)c1N` [Ex. 28] yielded an efficacy of 100%.

Test system: red spider mite (Tetranychus urticae)
Experiment: Tetranychus test, OP-resistant (TETRUR spray treatment)
Format: in vivo
Settings: Tetranychus urticae, foliar, 144 h, 500 g/ha, bean leaf discs, after 6 days, read-out: efficacy
Experimental: Tetranychus Test, OP-Resistant (TETRUR Spray Treatment)
Solvent: 78.0 parts by weight of acetone • • 1.5 parts by weight of dimethylformamide
Emulsifier: 0.5 part by weight of alkylaryl polyglycol ether
To prepare an appropriate active ingredient preparation, 1 part by weight of active ingredient is mixed with the stated amounts of solvent and emulsifier, and the concentrate is diluted with emulsifier-containing water to the desired concentration. Discs of bean leaves (Phaseolus vulgaris) infested by all stages of the red spider mite (Tetranychus urticae) are sprayed with an active ingredient preparation of the desired concentration. After 6 days, the efficacy in % is determined. 100% means that all spider mites have been killed; 0% means that none of the spider mites have been killed.
In the case of `COc1nccnc1-n1nc(C(F)(F)F)c(-c2cc(Br)c3c(c2)OCO3)c1N` [Ex. 74], the pest or weed control at 500 g/ha is reported as 90%. `COc1nccnc1-n1nc(C(C)C)c(-c2cc(Cl)c3c(c2)OCO3)c1N` [Ex. 77] showed a pest or weed control at 500 g/ha of 100%. In the case of `COc1nccnc1-n1nc(C(F)(F)F)c(-c2cc(C#N)c3c(c2)OCO3)c1N` [Ex. 150], the pest or weed control at 500 g/ha is reported as 100%. Compound `COc1nccnc1-n1nc(C(F)(F)Cl)c(-c2cc(Cl)c3c(c2)OCO3)c1N` [Ex. 169] has a pest or weed control at 500 g/ha of 100%. `CCOc1nccnc1-n1nc(CC)c(-c2cc(Cl)c3c(c2)OCO3)c1N` [Ex. 170] showed a pest or weed control at 500 g/ha of 100%.

Test system: green peach aphid (Myzus persicae)
Experiment: Myzus test (MYZUPE spray treatment)
Format: in vivo
Settings: Myzus persicae, 144 h, Chinese cabbage discs, after 6 days, read-out: efficacy
Experimental: Myzus Test (MYZUPE Spray Treatment) Solvent: 78 parts by weight of acetone • • 1.5 parts by weight of dimethylformamide Emulsifier: 0.5 part by weight of alkylaryl polyglycol ether To prepare an appropriate active ingredient preparation, 1 part by weight of active ingredient is mixed with the stated amounts of solvent and emulsifier, and the concentrate is diluted with emulsifier-containing water to the desired concentration. Discs of Chinese cabbage (Brassica pekinensis) infested by all stages of the green peach aphid (Myzus persicae) are sprayed with an active ingredient preparation of the desired concentration. After 6 days, the efficacy in % is determined. 100% means that all of the aphids have been destroyed; 0% means that none of the aphids have been destroyed.
`COc1nccnc1-n1nc(C(F)(F)F)c(-c2cc(Br)c3c(c2)OCO3)c1N` [Ex. 74] gave a pest or weed control at 500 g/ha of 90%. Compound `COc1nccnc1-n1nc(C(C)C)c(-c2cc(Cl)c3c(c2)OCO3)c1N` [Ex. 77] has a pest or weed control at 500 g/ha of 100%. Work on `COc1nccnc1-n1nc(C(F)(F)F)c(-c2cc(C#N)c3c(c2)OCO3)c1N` [Ex. 150] yielded a pest or weed control at 500 g/ha of 100%. For `COc1nccnc1-n1nc(C(F)(F)Cl)c(-c2cc(Cl)c3c(c2)OCO3)c1N` [Ex. 169], the pest or weed control at 500 g/ha was 100%. `CCOc1nccnc1-n1nc(CC)c(-c2cc(Cl)c3c(c2)OCO3)c1N` [Ex. 170] showed a pest or weed control at 500 g/ha of 100%.

Test system: caterpillars of the armyworm (Spodoptera frugiperda)
Experiment: Spodoptera frugiperda test (SPODFR spray treatment)
Format: in vivo
Settings: 500 g/ha, maize leaf discs, after 7 days
Experimental: Spodoptera frugiperda Test (SPODFR Spray Treatment) Solvent: 78.0 parts by weight of acetone • • 1.5 parts by weight of dimethylformamide Emulsifier: 0.5 part by weight of alkylaryl polyglycol ether To prepare an appropriate active ingredient preparation, 1 part by weight of active ingredient is mixed with the stated amounts of solvent and emulsifier, and the concentrate is diluted with emulsifier-containing water to the desired concentration. Discs of maize leaves (Zea mays) are sprayed with an active ingredient preparation of the desired concentration and, after drying, populated with caterpillars of the armyworm (Spodoptera frugiperda). After 7 days, the efficacy in % is determined. 100% means that all caterpillars have been killed; 0% means that none of the caterpillars have been killed.
For `CSc1nccnc1-n1nc(C(F)(F)F)c(-c2cc(Cl)cc(C(F)(F)F)c2)c1N` [Ex. 28], the efficacy was 100%.

Same assay, conditions: Spodoptera frugiperda, foliar, 168 h, maize leaf discs, after 7 days, read-out: efficacy
`COc1nccnc1-n1nc(C(F)(F)F)c(-c2cc(Br)c3c(c2)OCO3)c1N` [Ex. 74] showed a pest or weed control at 500 g/ha of 100%. With `COc1nccnc1-n1nc(C(C)C)c(-c2cc(Cl)c3c(c2)OCO3)c1N` [Ex. 77] the pest or weed control at 500 g/ha was 100%. In the case of `COc1nccnc1-n1nc(C(F)(F)F)c(-c2cc(C#N)c3c(c2)OCO3)c1N` [Ex. 150], the pest or weed control at 500 g/ha is reported as 100%. `COc1nccnc1-n1nc(C(F)(F)Cl)c(-c2cc(Cl)c3c(c2)OCO3)c1N` [Ex. 169] gave a pest or weed control at 500 g/ha of 100%. `CCOc1nccnc1-n1nc(CC)c(-c2cc(Cl)c3c(c2)OCO3)c1N` [Ex. 170] gave a pest or weed control at 500 g/ha of 100%.

Test system: larvae of the mustard beetle (Phaedon cochleariae)
Experiment: Phaedon test (PHAECO spray treatment)
Format: in vivo
Settings: 500 g/ha, Chinese cabbage discs, after 7 days
Experimental: Phaedon Test ([…] Spray Treatment) Solvent: 78.0 parts by weight of acetone • • 1.5 parts by weight of dimethylformamide Emulsifier: 0.5 part by weight of alkylaryl polyglycol ether To prepare an appropriate active ingredient preparation, 1 part by weight of active ingredient is mixed with the stated amounts of solvent and emulsifier, and the concentrate is diluted with emulsifier-containing water to the desired concentration. Discs of Chinese cabbage (Brassica pekinensis) are sprayed with an active ingredient preparation of the desired concentration and, after drying, populated with larvae of the mustard beetle (Phaedon cochleariae). After 7 days, the efficacy in % is determined. 100% means that all beetle larvae have been killed; 0% means that none of the beetle larvae have been killed.
For `CSc1nccnc1-n1nc(C(F)(F)F)c(-c2cc(Cl)cc(C(F)(F)F)c2)c1N` [Ex. 28], the efficacy was 100%.

Same assay, conditions: Phaedon cochleariae, 168 h, Chinese cabbage discs, after 7 days, read-out: efficacy
In the case of `COc1nccnc1-n1nc(C(F)(F)F)c(-c2cc(Br)c3c(c2)OCO3)c1N` [Ex. 74], the pest or weed control at 500 g/ha is reported as 100%. In the case of `COc1nccnc1-n1nc(C(C)C)c(-c2cc(Cl)c3c(c2)OCO3)c1N` [Ex. 77], the pest or weed control at 500 g/ha is reported as 100%. With `COc1nccnc1-n1nc(C(F)(F)F)c(-c2cc(C#N)c3c(c2)OCO3)c1N` [Ex. 150] the pest or weed control at 500 g/ha was 100%. Work on `COc1nccnc1-n1nc(C(F)(F)Cl)c(-c2cc(Cl)c3c(c2)OCO3)c1N` [Ex. 169] yielded a pest or weed control at 500 g/ha of 100%. With `CCOc1nccnc1-n1nc(CC)c(-c2cc(Cl)c3c(c2)OCO3)c1N` [Ex. 170] the pest or weed control at 500 g/ha was 100%.
